Literature values in patent US20130178535A1, “Acetaminophen Composition” (B. Braun Melsungen AG, priority 2010, published 2013).

pH at which breakdown (hydrolysis) in aqueous solution is minimal: ~6
SMILES: CC(=O)Nc1ccc(O)cc1 [paracetamol, N-(4-hydroxyphenyl)ethanamide]
